What was measured:
[1] = target: T1, Muscarinic acetylcholine receptor M4 (Homo sapiens, UniProt P08173); test: Positive allosteric modulator activity at human M4 receptor expressed in CHO cells co-expressing Gqi5 in presence of EC20 concentration of acetylcholine by calcium mobilization assay; assay type: cell-based
T1 sequence (P08173 whole entry): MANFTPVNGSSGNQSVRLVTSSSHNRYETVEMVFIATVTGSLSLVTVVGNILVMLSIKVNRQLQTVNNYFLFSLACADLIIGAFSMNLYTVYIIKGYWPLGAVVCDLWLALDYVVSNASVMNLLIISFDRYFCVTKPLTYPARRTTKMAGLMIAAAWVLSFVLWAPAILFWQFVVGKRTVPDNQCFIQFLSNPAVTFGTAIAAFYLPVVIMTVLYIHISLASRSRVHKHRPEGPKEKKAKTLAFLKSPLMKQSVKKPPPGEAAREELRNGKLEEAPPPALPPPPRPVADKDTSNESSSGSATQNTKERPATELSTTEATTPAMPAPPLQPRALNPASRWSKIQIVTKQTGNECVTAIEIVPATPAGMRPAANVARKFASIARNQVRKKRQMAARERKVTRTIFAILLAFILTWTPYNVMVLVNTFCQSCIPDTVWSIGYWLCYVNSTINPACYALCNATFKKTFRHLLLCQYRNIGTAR

[2] = target: T2, Muscarinic acetylcholine receptor M4 (Homo sapiens) (UniProt P08173); test: Positive allosteric modulator activity at human M4 receptor expressed in CHO cells co-expressing Gqi5 assessed as maximal response to ACh by calcium mobilization assay relative to contol; assay type: cell-based; details: filed as positive allosteric modulator
T2 sequence (whole entry): T1 sequence (P08173 whole entry)

| EC50 ([1]; read-out: EC50) [nM] | Activity [2] [%] | EC50 ([1]; read-out: pEC50 (converted)) [nM] | pEC50 ([1]; cho) | SMILES |
| --- | --- | --- | --- | --- |
| 100 | 87.1 | – | – | COc1cc(F)c(CNC(=O)c2sc3nnc(C)c(C)c3c2N)c(F)c1 |
| 43.4 | 71.2 | – | – | COc1ccc(CNC(=O)c2sc3nnc(C)c(C)c3c2N)c(F)c1F |
| 41.4 | 68.5 | – | – | COc1cc(F)c(CNC(=O)c2sc3nnc(C)c(C)c3c2N)cc1F |
| 59.1 | 83.1 | 60.3 | – | Cc1nnc2sc(C(=O)NCc3ccc(O)c(F)c3)c(N)c2c1C |
| 239 | 76.9 | – | – | COc1ccc(CNC(=O)c2sc3nnc(C)c(C)c3c2N)cn1 |
| 142 | 80.8 | – | – | COc1ncc(CNC(=O)c2sc3nnc(C)c(C)c3c2N)cc1F |
| 130 | 83.7 | – | – | COc1ccc(CNC(=O)c2sc3nnc(C)c(C)c3c2N)cc1 |
| 508 | 62.4 | – | – | COc1ccc([C@H](C)NC(=O)c2sc3nnc(C)c(C)c3c2N)cc1F |
| > 10000 | – | – | < 5 | COc1ccc([C@@H](C)NC(=O)c2sc3nnc(C)c(C)c3c2N)cc1F |
| 96.7 | 69.8 | – | – | Cc1nnc2sc(C(=O)NCc3ccc(O)cc3)c(N)c2c1C |
| 90.6 | 75.5 | – | – | COc1ccc(CNC(=O)c2sc3nnc(C)c(C)c3c2N)c(F)c1 |
| 84.1 | 75.3 | – | – | COc1c(F)cc(CNC(=O)c2sc3nnc(C)c(C)c3c2N)cc1F |
